From US11096923B2, “Pharmaceutical composition containing polymyxin B/trimethoprim based therapeutics” (University of Rochester, priority 2016, dated 2021)
Where two headings read alike, the source gives them in different places.

Key:
P. aeruginosa PAO1 = experiment: Selleck library screen in presence of sub-inhibitory polymyxin B/trimethoprim; assay type: cell-based, Pseudomonas aeruginosa; parameters: key: Growth (+); no growth (−); details: for P. aeruginosa growth, 5 μM: drug 5 μM in presence of 0.2 μg ml^−1 polymyxin B/trimethoprim; for P. aeruginosa growth, 50 μM: drug 50 μM in presence of 0.2 μg ml^−1 polymyxin B/trimethoprim
Experimental: To identify agents that potentiate the antimicrobial activity of polymyxin B/trimethoprim we first determined the highest concentration of the polymyxin B/trimethoprim combination that allowed growth of P. aeruginosa strain PAO1 and S. aureus strain UAMS-1.
For Selleck library screening, individual wells of 96-well microtiter plates containing 88 μl of fresh media were inoculated with approximately 10^5 CFUs of P. aeruginosa strain PAO1 or S. aureus UAMS-1. Next, 2 μl of polymyxin B/trimethoprim was added to a final concentration of 0.2 μg ml^−1 or 1.25 μg ml^−1 for PA01 and UAMS-1, respectively. Library members were then added at either 5 μM or 50 μM final concentration. Plates were incubated at 37° C. for 16 hours and hits were identified as wells with no visible growth. […]

[1] = test system: planktonic P. aeruginosa cells; experiment: Antimicrobial kill curves; assay type: cell-based, Pseudomonas aeruginosa; details: 2× MIC; for reduction in CFU at hour 4: 4 hours post-treatment
Experimental: (§1) Overnight cultures of the indicated organism were used to inoculate (1:100 dilution) 100 ml of fresh media and grown to mid-exponential phase. […] Aliquots were taken at 1, 2, 3, 4, and 24 hours, serial diluted and plated for colony forming units.

S. aureus strain UAMS-1 = assay type: cell-based, Staphylococcus aureus; details: 1×MIC, laser microbial growth monitor over 40 hours
Experimental: Spontaneous resistance to the indicated test agent(s) was measured for P. aeruginosa strain PA01 and S. aureus strain UAMS-1 using two liquid culture approaches. […] Growth was measured using the BacterioScan s216Dx laser microbial growth monitor, with optical measurements taken every 3 minutes over 40 hours. Following 40 hours, samples were plated for to measure viable colony forming units and re-tested for drug susceptibility.
To determine if these colonies represented untreated cells vs. resistant cells, 8 individual colonies from each treatment condition were randomly selected and tested for MICs.
Using an automated laser microbial growth monitor, the optical profiles of these cultures were measured continuously over time. […] Again 8 colonies were selected at random from each treatment group.

P. aeruginosa = experiment: MIC of clinical P. aeruginosa ocular isolates (antibiotic susceptibility profiles); assay type: cell-based, Pseudomonas aeruginosa; details: Pseudomonas aeruginosa, read-out: Minimum Inhibitory Concentration
Excerpt: A series of genotyping and biological assays were used as a preliminary means to evaluate the clonality of clinical P. aeruginosa isolates collected, as follows. Genomic DNA was purified from each isolate using Qiagen DNeasy kits (Hilden, Germany) and used as a template for polymerase chain reactions to detect the presence of the virulence factors exoS, exoY, exoU, exoT, and perV using previously published primers (Table 1). See Allewelt M, Coleman F T, Grout M, Priebe G P, Pier G B. Acquisition of expression of the Pseudomonas aeruginosa ExoU cytotoxin leads to increased bacterial virulence in a murine model of acute pneumonia and systemic spread. Infection and immunity 2000; 68:3998-4004, Lomholt J A, Poulsen K, Kilian M. Epidemic population structure of Pseudomonas aeruginosa: evidence for a clone that is pathogenic to the eye and that has a distinct combination of virulence factors. Infection and immunity 2001; 69, and Ledbetter E C, Mun J J, Kowbel D, Fleiszig S M. Pathogenic phenotype and genotype of Pseudomonas aeruginosa isolates from spontaneous canine ocular infections. Investigative ophthalmology & visual science 2009; 50. […] See Institute C. Performance Standards for Antimicrobial Susceptibility Testing: Twenty-fifth Informational Supplement. Each isolate's ability to form biofilms was quantified. To do so, wells of a polystyrene plate containing 72-hour established biofilms were washed with 0.8% NaCl to remove non adherent cells and stained with crystal violet. To quantify biofilm staining, plates were washed 3 times with H2O, stain was suspended in 30% glacial acetic acid and the optical density (OD600nm) of each well was determined using an automated plate reader, as previously described. See Jacobs A C, Blanchard C E, Catherman S C, Dunman P M, Murata Y. An ribonuclease T2 family protein modulates Acinetobacter baumannii abiotic surface colonization. PloS one 2014; 9.

[2] = test system: planktonic S. aureus cells; experiment: Antimicrobial kill curves; assay type: cell-based, Staphylococcus aureus; details: 2× MIC
Experimental: as §1

P. aeruginosa biofilm = test system: P. aeruginosa biofilm; parameters: key: Killing (+) of established biofilms; details: established biofilms; adenylate kinase reporter; Blanchard et al., 2016; cited from earlier work

| Compound | P. aeruginosa growth, 5 μM (P. aeruginosa PAO1) | P. aeruginosa growth, 50 μM (P. aeruginosa PAO1) | reduction in CFU at hour 4 [1] | start of outgrowth of treated culture (S. aureus strain UAMS-1) | MIC (P. aeruginosa; P. aeruginosa ocular isolate RW01 (cornea)) | MIC (P. aeruginosa; P. aeruginosa ocular isolate RW02 (cornea)) | MIC (P. aeruginosa; P. aeruginosa ocular isolate RW03 (cornea)) | MIC (P. aeruginosa; P. aeruginosa ocular isolate RW04 (conjunctiva)) | MIC (P. aeruginosa; P. aeruginosa ocular isolate RW05 (cornea)) | MIC (P. aeruginosa; P. aeruginosa ocular isolate RW06 (cornea)) | MIC (P. aeruginosa; P. aeruginosa ocular isolate RW07 (cornea)) | reduction in CFU at 24 hr ([1]; 24 hours) | reduction in CFU at 24 hours [2] | P. aeruginosa biofilm AK Signal (P. aeruginosa biofilm) |
| --- | --- | --- | --- | --- | --- | --- | --- | --- | --- | --- | --- | --- | --- | --- |
| CO[C@H]1/C=C/O[C@@]2(C)Oc3c(C)c(O)c4c(O)c(c(/C=N/N5CCN(C)CC5)c(O)c4c3C2=O)NC(=O)/C(C)=C\C=C\[C@H](C)[C@H](O)[C@@H](C)[C@@H](O)[C@@H](C)[C@H](OC(C)=O)[C@@H]1C [Rifampicin, rifampicin] | − | − | 6 log | 8 h |  |  |  |  |  |  |  |  |  |  |
| NC[C@H]1O[C@H](O[C@H]2[C@H](O)[C@@H](O[C@H]3O[C@H](CO)[C@@H](O)[C@H](N)[C@H]3O)[C@H](N)C[C@@H]2N)[C@H](N)C[C@@H]1O [Tobramycin, tobramycin] | − | − | 2 log |  | 0.24 µg/mL | 0.24 µg/mL | 0.24 µg/mL | 0.48 µg/mL | 0.48 µg/mL | 0.24 µg/mL | 0.24 µg/mL | 7 log | 6 log | + |
